{"source": "patent US12091425B2", "about": "(AMGEN INC., priority 2016, dated 2024)", "data": [{"target": "T1, Mcl-1/Bim interaction, recombinant human Mcl-1 (171-327) (Homo sapiens, UniProt Q07820)", "T1 construct": "made in house", "T1 sequence (Q07820 171-327)": "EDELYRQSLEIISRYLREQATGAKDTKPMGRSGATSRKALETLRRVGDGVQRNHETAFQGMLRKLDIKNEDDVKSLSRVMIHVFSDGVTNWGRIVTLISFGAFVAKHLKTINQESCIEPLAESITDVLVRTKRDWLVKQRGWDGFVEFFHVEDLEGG", "assay": "Cell free Mcl-1: Bim Affinity Assay (Mcl-1 HTRF)", "assay_type": "binding", "settings": "cell free Mcl-1:Bim TR-FRET, recombinant human Mcl-1 (171-327)", "method_in_brief": "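Read-out is time-resolved FRET after overnight incubation, using a biotin-labelled peptide from human Bim (51-76) as the binding partner; IC50 was derived from competition curves.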", "units": {"IC50": "nM"}, "values": [{"compound": "CCC1CCCC(O)C2CCC2CN2CC3(CCCc4cc(Cl)ccc43)COc3ccc(cc32)C(=O)NS1(=O)=O", "note": "(single isomer, unassigned) [Example 768]", "IC50": 2.24}, {"compound": "COC[C@H]1C/C=C/[C@H](O)[C@@H]2CC[C@H]2CN2C[C@@]3(CCCc4cc(Cl)ccc43)COc3ccc(cc32)C(=O)NS1(=O)=O", "note": "(single isomer, unassigned) [Example 772]", "IC50": 5.2}, {"compound": "COC[C@@H]1C/C=C/[C@H](O)[C@@H]2CC[C@H]2CN2C[C@@]3(CCCc4cc(Cl)ccc43)COc3ccc(cc32)C(=O)NS1(=O)=O", "note": "(single isomer, unassigned) [Example 773]", "IC50": 2.35}, {"compound": "COC[C@@]1(C)C/C=C/[C@H](O)[C@@H]2CC[C@H]2CN2C[C@@]3(CCCc4cc(Cl)ccc43)COc3ccc(cc32)C(=O)NS1(=O)=O", "note": "(single isomer, unassigned) [Example 774]", "IC50": 1.72}, {"compound": "CC(=O)N1CC[C@H](O)[C@@H]2CC[C@H]2CN2C[C@@]3(CCCc4cc(Cl)ccc43)COc3ccc(cc32)C(=O)NS(=O)(=O)CC1", "note": "(single isomer, unassigned) [Example 778]", "IC50": 6.89}, {"compound": "O=C1NS(=O)(=O)CCOC[C@@H](O)C[C@H]2CC[C@H]2CN2C[C@@]3(CCCc4cc(Cl)ccc43)COc3ccc1cc32", "note": "(single isomer, unassigned) [Example 780, (3R,6R,8S,22S)-6′-chloro-8-hydroxy-3′,4′-dihydro-2′H,15H-spiro[10,20-dioxa-13-thia-1,14-diazatetracyclo[14.7.2.0^3,6.0^19,24]pentacosa-16,18,24-triene-22, 1′-naphthalen]-15-one-13, 13-dioxide or (3R,6R,8R,22S)-6′-chloro-8-hydroxy-3′,4′-dihydro-2′H,15H-spiro[10,20-dioxa-13-thia-1,14-diazatetracyclo[14.7.2.0^3,6.0^19,24]pentacosa-16,18,24-triene-22, 1′-naphthalen]-15-one-13, 13-dioxide]", "IC50": 4.84}, {"compound": "O=C1NS(=O)(=O)CCOCCC[C@@H]2CC[C@H]2CN2C[C@@]3(CCCc4cc(Cl)ccc43)COc3ccc1cc32", "note": "(single isomer, unassigned) [Example 815]", "IC50": 1.26}, {"compound": "O=C1NS(=O)(=O)CCOCCC[C@@H]2CC[C@H]2CN2C[C@@]3(CCc4cc(Cl)ccc43)COc3ccc1cc32", "note": "(single isomer, unassigned) [Example 816]", "IC50": 4.72}, {"compound": "O=C1NS(=O)(=O)CCC/C=C/C[C@H](O)[C@@H]2CC[C@H]2CN2C[C@@]3(CCCc4cc(Cl)ccc43)COc3ccc1cc32", "note": "(single isomer, unassigned) [Example 833, (1S,3′R,6′R,7′S,9′E)-6-chloro-7′-hydroxy-3,4-dihydro-2H,16′H-spiro[naphthalene-1,23′-[21]oxa[14]thia[1,15]diazatetracyclo[15.7.2.0^3,6.0^20,25]hexacosa[9,17,19,25]tetraen]-16′-one 14′,14′-dioxide or (1S,3′R,6′R,7′S,9′Z)-6-chloro-7′-hydroxy-3,4-dihydro-2H,16′H-spiro[naphthalene-1,23′-[21]oxa[14]thia[1,15]diazatetracyclo[15.7.2.0^3,6.0^20,25]hexacosa [9,17,19,25]tetraen]-16′-one 14′,14′-dioxide]", "IC50": 5.12}, {"compound": "O=C1NS(=O)(=O)CC/C=C/C[C@@H](O)[C@@H]2CC[C@H]2CN2C[C@@]3(CCCc4cc(Cl)ccc43)COc3ccc1cc32", "note": "(single isomer, unassigned) [Example 844]", "IC50": 11.1}, {"compound": "O=C1NS(=O)(=O)CC/C=C\\C[C@@H](O)[C@@H]2CC[C@H]2CN2C[C@@]3(CCCc4cc(Cl)ccc43)COc3ccc1cc32", "note": "(single isomer, unassigned) [Example 845]", "IC50": 4.32}]}]}
